# Results as given in patent US20250228795A1, “ESTROGENIC COMPOUNDS AND METHODS OF USE” (laterion, Inc., priority 2022, published 2025).
# Key:
# [1] = test system: MCF-7 breast cancer cells; assay: MCF-7 cell proliferation (viable cell counts), CC7 and six analogs; type: cell-based
# Procedure: In order for long term menopausal hormone therapy to be a viable alternative to currently available therapeutic options it must not promote breast cancer. […] MCF-7 cells were incubated for 24 hr in the presence of medium (control), 1 nM […], or 5 μM of each of the compounds depicted in FIG. 4 (CC7 and six analogs, A9, A10, A11, A13, A15, and A20). Viable cell counts were determined by flow cytometry.
# MCF-7 cells were plated at a density of 50,000 cells per well in 6-well tissue culture plates in DMEM/F12 supplemented with 5% stripped FBS. […] The cells were then detached with trypsin, neutralized with media containing 5% FBS, and resuspended. Appropriate amounts of cell suspension were placed in ISOTON II diluent (Thermo Fisher Scientific, Waltham, MA, USA) and the cell numbers were then measured using a Coulter Counter (Beckman, Brea, CA, USA).
# (§1) Flow cytometry was performed based on a previously described method (Pan et al. 2016). Briefly, the cells were plated at a density of 500,000 cells per well in 6-well tissue culture dishes in DMEM/F-12 supplemented with 5% stripped FBS for 48 h. The cultured medium was then replaced by serum-free DMEM/F12 for 24 h. […] The culture medium was then aspirated, and the cells were washed with PBS, detached with trypsin and collected by centrifugation at 1700 rpm for 5 min. The cell pellets were washed with ice cold PBS followed by centrifugation at 1700 rpm for 10 min at room temperature. The cell pellets were resuspended in 500 μL PBS containing 50 μg/mL propidium iodide, 0.1% of triton X-100, 0.1% of sodium citrate, and 10 μg/mL of RNase. The cell suspensions were then analyzed with a BD LSR II Flow Cytometer (BD Biosciences, San Jose, CA, USA) in the Flow Cytometry facility at University of California, Berkeley and the percentage of cells in cell cycle phases were determined by using FlowJo 7.6.5 (FlowJo, LLC, Ashland, OR, USA).
# [2] = biological target: T1, ERα (Homo sapiens, UniProt P03372); assay: Luciferase activity in ERE-TK-Luc/ERα-transfected Ishikawa cells; type: cell-based; design: expressed in transfected cells; host or cells: Ishikawa cells; details: FIG. 6
# T1 sequence (P03372 1-595): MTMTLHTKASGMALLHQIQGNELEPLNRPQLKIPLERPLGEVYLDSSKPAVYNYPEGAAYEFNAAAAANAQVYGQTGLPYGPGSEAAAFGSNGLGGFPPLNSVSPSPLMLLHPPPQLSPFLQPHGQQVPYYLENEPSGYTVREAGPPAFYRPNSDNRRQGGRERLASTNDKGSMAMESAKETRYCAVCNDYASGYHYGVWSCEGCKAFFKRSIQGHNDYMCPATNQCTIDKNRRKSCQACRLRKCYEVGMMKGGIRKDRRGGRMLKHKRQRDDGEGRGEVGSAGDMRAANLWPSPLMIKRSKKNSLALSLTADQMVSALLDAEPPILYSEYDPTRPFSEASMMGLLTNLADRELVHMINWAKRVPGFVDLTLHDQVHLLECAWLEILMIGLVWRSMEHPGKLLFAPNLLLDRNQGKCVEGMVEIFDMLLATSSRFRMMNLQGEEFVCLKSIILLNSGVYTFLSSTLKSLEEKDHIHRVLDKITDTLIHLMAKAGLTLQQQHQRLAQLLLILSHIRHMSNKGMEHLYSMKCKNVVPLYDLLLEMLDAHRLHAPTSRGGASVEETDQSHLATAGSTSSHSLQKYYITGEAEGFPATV
# [3] = biological target: T1, ERα; assay: Luciferase assay of A9 analogs in doxycycline-dependent U2OS cells (ER-TK-Luc or NKG2E-TK-Luc); type: cell-based; design: expressed in transfected cells; host or cells: doxycycline-dependent U2OS cells; details: in combination with E2; ER-TK-Luc (FIG. 9) and NKG2E-TK-Luc (FIG. 10); compared with A9R1-A9R4
# Procedure: Luciferase Assay of A9 analogs. In order to better understand the structure-activity relationship of analogs of A9, the analogs A9R1, A9R2, A9R3, and A9R4 were prepared. See structures on FIG. 8. […] Luciferase activity results are shown in FIG. 9 (ER-TK-Luc) and FIG. 10 (NKG2E-TK-Luc).
# [4] = test system: MCF-7 breast cancer cells; assay: MCF-7 cell proliferation (viable cell counts), A9 and its four analogs; type: cell-based
# Procedure: Viable cell counts were determined by flow cytometry.
# MCF-7 cells were plated at a density of 50,000 cells per well in 6-well tissue culture plates in DMEM/F12 supplemented with 5% stripped FBS. […] The cells were then detached with trypsin, neutralized with media containing 5% FBS, and resuspended. Appropriate amounts of cell suspension were placed in ISOTON II diluent (Thermo Fisher Scientific, Waltham, MA, USA) and the cell numbers were then measured using a Coulter Counter (Beckman, Brea, CA, USA)
# as §1
# [5] = biological target: T2, ERβ (Homo sapiens, UniProt Q92731); assay: Luciferase activity in NKG2E-TK-Luc-transfected U2OS-ERβ cells with doxycycline; type: cell-based; details: in combination with E2, doxycycline, FIG. 7
# T2 construct: expressed in transfected cells; host or cells: doxycycline-dependent U2OS cells
# Procedure: Luciferase Activity in NKG2E-TK-Luc-Transfected U2OS-ERβ Cells with Doxycycline. […] Luciferase activity for each of the compounds was recorded.
# [6] = test system: KRT19; assay: Gene expression assay (real-time PCR) in U2OS-ERα cells: KRT19; type: cell-based, Human; details: in combination with E2, U2OS-ERα cells, FIG. 5
# Procedure: (§2) Human U2OS (osteosarcoma) cells expressing a tetracycline-regulated ERα (U2OS-ERα) were prepared, characterized, and maintained as previously described (Tee et al., 2004). The cells were maintained in phenol red-free Gibco DMEM/F-12 (Thermo Fisher Scientific, Waltham, MA, USA) supplemented with 5% charcoal-dextran stripped fetal bovine serum (FBS, Gemini Bio Products, West Sacramento, CA, USA), 100 units/mL penicillin and streptomycin, 50 μg/mL Fungizone, and 2 mM of glutamine. To maintain stable transfected cells, 50 μg/mL hygromycin B and 500 μg/mL of zeocin (Invitrogen, Waltham, MA, USA) were included in culture media.
# [7] = test system: FGR; assay: Gene expression assay (real-time PCR) in U2OS-ERα cells: reprogrammed gene FGR; type: cell-based, Human; details: FIG. 5
# Procedure: as §2
# [8] = compound (5 μM) in combination with E2, FIG. 4
# [9] = in combination with E2, Ishikawa cells
# [10] = compound (5 μM) in combination with E2, FIG. 11
# [11] = compound alone (1 nM E2 or 5 μM compound), FIG. 11
# T2 sequence (Q92731 whole entry): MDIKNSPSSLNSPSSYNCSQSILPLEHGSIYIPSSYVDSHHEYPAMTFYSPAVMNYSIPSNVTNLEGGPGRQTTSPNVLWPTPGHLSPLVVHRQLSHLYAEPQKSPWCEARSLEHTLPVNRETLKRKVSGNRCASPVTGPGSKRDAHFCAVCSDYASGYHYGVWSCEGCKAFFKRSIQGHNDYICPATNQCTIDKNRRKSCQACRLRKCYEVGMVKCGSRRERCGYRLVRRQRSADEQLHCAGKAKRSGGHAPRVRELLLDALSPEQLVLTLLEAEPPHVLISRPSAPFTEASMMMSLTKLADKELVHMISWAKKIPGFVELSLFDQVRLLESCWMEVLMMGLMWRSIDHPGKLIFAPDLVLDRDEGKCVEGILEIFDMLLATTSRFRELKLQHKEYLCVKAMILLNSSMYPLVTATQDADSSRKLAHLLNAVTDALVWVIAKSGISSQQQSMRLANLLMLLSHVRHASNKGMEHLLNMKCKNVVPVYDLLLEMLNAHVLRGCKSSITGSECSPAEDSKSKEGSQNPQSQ
Compound,"MCF-7 viable cell count / proliferation [1, 8]","MCF-7 viable cell count / proliferation [4, 10]","luciferase activity (NKG2E-TK-Luc), ERβ activity [5]",also measured
"O=C(/C=C/c1ccccn1)c1ccc(O)c(O)c1O [Example A9, (E)-3-(pyridin-2-yl)-1-(2,3,4-trihydroxyphenyl)prop-2-en-1-one]",well below the control,well below the control,,"luciferase activity (ERE-TK-Luc) ([2]; compound alone, Ishikawa cells): no effect; luciferase activity (ERE-TK-Luc) [2, 9]: demonstrated synergism with E2; luciferase activity, synergistic effect with E2 [3]: greatest synergistic effect with E2; MCF-7 viable cell count / proliferation [4, 11]: well below the cell counts for E2 alone"
"O=C(/C=C/c1ccc(O)cc1)c1ccc(O)c(O)c1 [Example A14, (E)-1-(3,4-dihydroxyphenyl)-3-(4-hydroxyphenyl)prop-2-en-1-one]",,,exceptional ERβ activity,
"O=C(/C=C/c1ccccn1)c1ccc(O)cc1O [Example A9R4, (E)-1-(2,4-dihydroxyphenyl)-3-(pyridin-2-yl)prop-2-en-1-one]",,well below the control,,
"O=C(/C=C/c1ccc(O)cc1)c1ccccc1 [Example A15, (E)-3-(4-hydroxyphenyl)-1-phenylprop-2-en-1-one]",,,exceptional ERβ activity,
"O=C(/C=C/c1ccccn1)c1ccc(O)cc1 [Example A9R1, (E)-1-(4-hydroxyphenyl)-3-(pyridin-2-yl)prop-2-en-1-one]",,well below the control,,
"Cc1cc(O)ccc1C(=O)/C=C/c1ccccn1 [Example A9R2, (E)-1-(4-hydroxy-2-methylphenyl)-3-(pyridin-2-yl)prop-2-en-1-one]",,well below the control,,
"O=C(/C=C/c1ccc(O)cc1)c1ccc(O)cc1 [Example A13, (E)-1,3-bis(4-hydroxyphenyl)prop-2-en-1-one]",,,exceptional ERβ activity,
"O=C(/C=C/c1ccccc1)c1ccc(O)c(O)c1O [CC7, 2′,3′,4′-trihydroxychalcone, reference compound]",well below the cell counts for E2 alone,well below the control,,"KRT19 expression [6]: large synergistic effect; MCF-7 viable cell count / proliferation ([1]; compound alone (1 nM E2 or 5 μM compound), FIG. 4): well below the cell counts for E2 alone; luciferase activity (ERE-TK-Luc) ([2]; compound alone, Ishikawa cells): no effect; luciferase activity (ERE-TK-Luc) [2, 9]: demonstrated synergism with E2; FGR expression ([7]; compound by itself, U2OS-ERα cells): not by either compound by itself; FGR expression ([7]; in combination with E2, U2OS-ERα cells): activated by the combination of E2 and CC7 only; MCF-7 viable cell count / proliferation [4, 11]: well below the cell counts for E2 alone"
"O=C(/C=C/c1cccc(O)c1)c1ccc(O)c(O)c1O [Example A10, (E)-3-(3-hydroxyphenyl)-1-(2,3,4-trihydroxyphenyl)prop-2-en-1-one]",well below the cell counts for E2 alone,,exceptional ERβ activity,
